Like-named read-outs stand apart in the source and are kept apart here. Values belong to the compound of their own block, whether it stands above or below them.
Tests used:
Aβ42 aggregate [1] = molecular target: T1, Aβ42 aggregate (Homo sapiens, UniProt P05067); assay: Inhibition constant toward Aβ42 aggregate (thioflavin S competition); format: binding; conditions: thioflavin S as ligand, read-out: Ki values (Aβ42 in Table 5)
T1 construct: Aβ (1-42) peptide; purchased Peptide Institute, Inc
Protocol: (§1) First, the dissociation constant (Kd) of thioflavin S used as a competitive ligand was first determined by a saturation experiment in order to calculate inhibition constants of compounds 1 to 3. That is, a mixed solution of a 10 vol % ethanol aqueous solution of thioflavin S (0.1-12.8 μmol/L) and the tau protein aggregate (final concentration 0.2 μmol/L, prepared in Example 9) or the Aβ42 aggregate (final concentration 2.2 μmol/L, prepared in Example 11) was incubated for 30 minutes, and the fluorescence intensity was measured using a fluorescence plate reader (FLEX STATION, Molecular Devices). The fluorescence intensity was measured at Ex 440 nm and Em 510 nm for the tau protein aggregate and Ex 440 nm and Em 490 nm for the Aβ42 aggregate. A saturation curve was prepared using GraphPad Prism, and the Kd value for thioflavin S was calculated.
(§2) Next, a mixed solution of a 10 volt ethanol aqueous solution of thioflavin S (1.5 μmol/L) and a test compound (0.6 nmol/L to 10 μmol/L) together with the tau protein aggregate (final concentration 0.2 μmol/L, prepared in Example 9) or the Aβ42 aggregate (final concentration 10 μg/ml, prepared in Example 11) was incubated for 30 minutes. Then, the fluorescence intensities at Ex 440 nm and Em 510 nm for the tau protein aggregate and Ex 440 nm and Em 490 nm for the Aβ42 aggregate were measured using a fluorescence plate reader (FLEX STATION, Molecular Devices). GraphPad Prism inhibition curves were prepared, and Ki values of compounds 1 to 3 were determined using the above obtained Kd value of thioflavin S.

tau protein aggregate [2] = molecular target: T2, tau protein aggregate (Homo sapiens, UniProt P10636); assay: Competitive inhibition experiment using thioflavin S (ThS) as ligand, fluorescence spectra; format: binding; parameters: made in house; host or cells: E. coli BL21; conditions: tau protein aggregate 0.2 μmol/L, thioflavin S 1.5 μmol/L, compound 0.1-2.7 μmol/L, excitation 440 nm
Protocol: Tau-441 expression vector (provided by Graduate School of Medicine, Osaka City University) was transferred to E. coli (BL21), culturing was carried out, and a tau protein was extracted and purified. Heparin (0.1 mg/mL) was added to the purified tau protein (1 mg/mL), and incubation in a 50 mmol/L MES buffer (pH 6.8, 100 mmol/L sodium chloride, 0.5 mmol/L EGTA) at 37° C. was carried out for 3 days, thus preparing an aggregate. Formation of the tau protein aggregate was confirmed by SDS-PAGE and thioflavin S fluorescence assay.
A mixed solution (550 μL) of the tau protein aggregate (final concentration […]) thus prepared, thioflavin S (Sigma Aldrich, final concentration 1.5 μmol/L), and compound 1, compound 2, or compound 3 solution at various concentrations (each having final concentrations of 0 to 2.7 μmol/L) was incubated for 30 minutes, and fluorescence spectra at an excitation wavelength of 440 nm were measured using a fluorescence spectrometer (RF-5300PC, Shimadzu Corporation).
In FIGS. 3 to 5, a is a fluorescence spectrum of a sample (sample I) containing only thioflavin S at 1.5 μmol/L, and b is a fluorescence spectrum of a sample (sample II) that is 0.2 μmol/L of the tau protein aggregate in sample I. In FIG. 3, c is a fluorescence spectrum of a sample that is 0.1 μmol/L of compound 1 in sample II, d is a fluorescence spectrum of a sample that is 0.3 μmol/L of compound 1 in sample II, e is a fluorescence spectrum of a sample that is 0.9 μmol/L of compound 1 in sample II, and f is a fluorescence spectrum of a sample that is 2.7 μmol/L of compound 1 in sample II. In FIG. 4, c is a fluorescence spectrum of a sample that is 0.1 μmol/L of compound 2 in sample II, d is a fluorescence spectrum of a sample that is 0.3 μmol/L of compound 2 in sample II, e is a fluorescence spectrum of a sample that is 0.9 μmol/L of compound 2 in sample II, and f is a fluorescence spectrum of a sample that is 2.7 μmol/L of compound 2 in sample II. […]

tau protein aggregate [3] = molecular target: T2, tau protein aggregate; assay: Inhibition constant toward tau protein aggregate (thioflavin S competition); format: binding; parameters: made in house; host or cells: E. coli BL21; conditions: for Ki ratios of Aβ42/Tau: ratio of Ki Aβ42 aggregate to Ki tau protein aggregate; for Ki: thioflavin S as ligand, tau protein aggregate, read-out: Ki values (Tau in Table 5)
Protocol: as §1, §2

Aβ42 aggregate [4] = molecular target: T1, Aβ42 aggregate; assay: Evaluation experiment of binding to amyloid β (filter radioactivity); conditions: Aβ42 aggregate 30 nmol/L, incubation 3 hours
Protocol: 0.5 mg of Aβ (1-42) peptide (purchased from Peptide Institute, Inc.) was dissolved in 2 mL of a PBS buffer containing 1 mmol/L of EDTA and incubated at 37° C. for 42 hours, thus preparing an Aβ42 aggregate. A glass tube was charged with a 10 vol % ethanol aqueous solution (900 μL), Aβ42 aggregate (50 μL, final concentration 30 nmol/L), and radioactive iodine-labeled compound 1, radioactive iodine-labeled compound 2, or radioactive iodine-labeled compound 3 (each 50 μL, 0.018-0.097 μCi), and incubation was carried out for 3 hours. B/F separation was carried out using a cell harvester (Brandel, M-24), and the radioactivity on the filter was measured in a γ counter. The proportion (%) of the radioactivity count on the filter relative to the radioactivity count of each sample used was determined, and binding of each compound to the Aβ42 aggregate was evaluated.
As a control, 4-dimethylamino-4′-iodochalcone (hereinafter, called a chalcone derivative) was prepared in accordance with a method described in the literature (Ono et al., Bioorg Med Chem, 15, 6802-6809, 2007), and the same experiment was carried out (radioactivity count in sample: […]-0.37 kBq (0.023-0.01 μCi)).

[5] = system: phosphorylated tau protein; assay: In vitro autoradiography using Alzheimer's disease patient-derived brain slice; format: binding, human; conditions: hippocampus slice of Alzheimer's disease patient, 3.07 kBq/mL, 1 hour
Protocol: A postmortem brain slice (paraffin-embedded slice) of the hippocampus of an Alzheimer's disease patient was purchased from BioChain. The brain slice was deparaffinized, a 10% ethanol-containing PBS solution (3.07 kBq/mL (0.083 μCi/mL)) of radioactive iodine-labeled compound 3 was added thereto, and a reaction was carried out for 1 hour. Subsequently, the sample was washed in sequence with a saturated lithium carbonate 50 vol % ethanol aqueous solution (2 minutes×2), a 50 volt ethanol aqueous solution (2 minutes×2), and purified water (30 seconds×2). The sample was exposed to light on an imaging plate for 48 hours, and analyzed using a bioimaging analyzer (model: BAS-5000, Fuji Photo Film Co., Ltd.). Furthermore, an adjacent slice was stained by an anti-phosphorylated tau protein antibody (AT8, Thermo).

[6] = mice
Protocol: Mice were decapitated after 2, 10, 30, and 60 minutes, and then each organ was then removed after blood collection, and radiation counts were measured in a γ counter.

tau protein aggregate [7] = molecular target: T2, tau protein aggregate; conditions: tau 0.37 μmol/L, incubated 1 to 1.5 hours, PD-10 column
Protocol: Mixed solutions of a tau protein aggregate (final concentration 0.37 μmol/L, prepared in Example 9) or an non-aggregated tau protein (final concentration 0.37 μmol/L) and radioactive iodine-labeled compound 1 (2.0 kBq (0.055 μCi)), radioactive iodine-labeled compound 2 (20 kBq (0.55 μCi)) or radioactive iodine-labeled form 3 (2.0 kBq (0.055 μCi)) were incubated for 1 hour to 1.5 hours, and then subjected to size exclusion chromatography (PD-10 column (GE Healthcare Japan), eluent: phosphate buffered-saline (PBS)). Subsequently, the radioactivity of an eluted fraction of the tau protein aggregate or the non-aggregated tau protein was measured in a γ counter.

[8] = 2 minutes after tail vein administration
[9] = 10 minutes after tail vein administration
[10] = 30 minutes after tail vein administration
[11] = 60 minutes after tail vein administration

T1 sequence (P05067 672-713 limits assumed): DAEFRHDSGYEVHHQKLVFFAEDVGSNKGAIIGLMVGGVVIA
T2 sequence (P10636 1-441 isoform P10636-8): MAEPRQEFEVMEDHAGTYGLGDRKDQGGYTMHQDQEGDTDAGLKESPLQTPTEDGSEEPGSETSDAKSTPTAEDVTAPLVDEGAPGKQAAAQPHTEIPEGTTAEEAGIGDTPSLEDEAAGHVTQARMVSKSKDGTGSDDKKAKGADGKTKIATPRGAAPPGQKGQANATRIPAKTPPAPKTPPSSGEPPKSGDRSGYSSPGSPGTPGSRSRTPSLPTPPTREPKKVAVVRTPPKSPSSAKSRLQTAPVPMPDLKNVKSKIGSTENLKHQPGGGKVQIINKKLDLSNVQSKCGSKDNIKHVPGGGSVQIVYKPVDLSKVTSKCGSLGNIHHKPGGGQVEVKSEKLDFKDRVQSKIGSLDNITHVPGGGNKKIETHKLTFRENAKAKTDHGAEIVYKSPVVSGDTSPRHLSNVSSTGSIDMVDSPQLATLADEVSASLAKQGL

Ki (Aβ42 aggregate [1]): 0.752 µM
Ki ratios of Aβ42/Tau (tau protein aggregate [3]): 1.54
Ki (tau protein aggregate [3]): 0.489 µM
SMILES: CCOC(=O)CN1C(=O)/C(=C/c2ccc(-c3cccc(I)c3)o2)SC1=S [Compound 1, (Z)-ethyl-2-(5-((5-(3-iodophenyl)furan-2-yl)methylene)-4-oxo-2-thioxothiazolidin-3-yl)acetate]
Inhibition of binding of tau protein aggregate to thioflavin S (fluorescence spectra) (tau protein aggregate [2]): inhibition of binding of a tau protein aggregate to thioflavin S

Ki (Aβ42 aggregate [1]): 0.864 µM
Ki ratios of Aβ42/Tau (tau protein aggregate [3]): 5.57
Ki (tau protein aggregate [3]): 0.155 µM
SMILES: CCOC(=O)CN1C(=O)/C(=C/c2ccc(-c3cccc(I)c3)o2)NC1=S [Compound 2, (Z)-ethyl-2-(4-((5-(3-iodophenyl)furan-2-yl)methylene)-5-oxo-2-thioxoimidazolidin-1-yl)acetate]
Inhibition of binding of tau protein aggregate to thioflavin S (fluorescence spectra) (tau protein aggregate [2]): inhibition of binding of a tau protein aggregate to thioflavin S

SMILES: O=C1/C(=C/c2ccc(-c3cccc([125I])c3)o2)NC(=S)N1CCc1c[nH]cn1 [Radioactive iodine-labeled compound 3, (Z)-3-(2-(1H-Imidazol-4-yl)ethyl)-5-((5-(3-(^125I)iodophenyl)furan-2-yl)methylene)-2-thioxoimidazolidin-4-one]
Binding to the Aβ42 aggregate (proportion of radioactivity count on the filter) (Aβ42 aggregate [4]): significantly lower
Radioactivity distribution on brain slice vs anti-phosphorylated tau antibody (AT8) staining [5]: coincided with the distribution (FIG. 10b) of the phosphorylated tau protein
Amount of radioactivity in organ: Blood [6, 8]: 8.16 ± 1.21 % ID/g
Amount of radioactivity in organ: Blood [6, 9]: 2.77 ± 0.21 % ID/g
Amount of radioactivity in organ: Blood [6, 10]: 2.11 ± 0.28 % ID/g
Amount of radioactivity in organ: Blood [6, 11]: 1.48 ± 0.27 % ID/g
Amount of radioactivity in organ: Brain [6, 8]: 1.54 ± 0.10 % ID/g
Amount of radioactivity in organ: Brain [6, 9]: 1.30 ± 0.12 % ID/g
Amount of radioactivity in organ: Brain [6, 10]: 0.66 ± 0.08 % ID/g
Amount of radioactivity in organ: Brain [6, 11]: 0.25 ± 0.02 % ID/g
Amount of radioactivity in organ: Heart [6, 8]: 8.48 ± 0.97 % ID/g
Amount of radioactivity in organ: Heart [6, 9]: 2.78 ± 0.19 % ID/g
Amount of radioactivity in organ: Heart [6, 10]: 1.73 ± 0.18 % ID/g
Amount of radioactivity in organ: Heart [6, 11]: 1.30 ± 0.37 % ID/g
Amount of radioactivity in organ: Intestine [6, 8]: 2.55 ± 0.16 % ID/g
Amount of radioactivity in organ: Intestine [6, 9]: 7.41 ± 1.21 % ID/g
Amount of radioactivity in organ: Intestine [6, 10]: 17.3 ± 1.67 % ID/g
Amount of radioactivity in organ: Intestine [6, 11]: 23.6 ± 2.39 % ID/g
Amount of radioactivity in organ: Kidney [6, 8]: 12.5 ± 0.76 % ID/g
Amount of radioactivity in organ: Kidney [6, 9]: 7.34 ± 0.70 % ID/g
Amount of radioactivity in organ: Kidney [6, 10]: 4.97 ± 0.71 % ID/g
Amount of radioactivity in organ: Kidney [6, 11]: 3.37 ± 0.30 % ID/g
Amount of radioactivity in organ: Liver [6, 8]: 35.0 ± 2.27 % ID/g
Amount of radioactivity in organ: Liver [6, 9]: 33.3 ± 1.41 % ID/g
Amount of radioactivity in organ: Liver [6, 10]: 27.2 ± 2.05 % ID/g
Amount of radioactivity in organ: Liver [6, 11]: 22.8 ± 2.13 % ID/g
Amount of radioactivity in organ: Lung [6, 8]: 11.4 ± 1.55 % ID/g
Amount of radioactivity in organ: Lung [6, 9]: 4.39 ± 0.42 % ID/g
Amount of radioactivity in organ: Lung [6, 10]: 3.00 ± 0.27 % ID/g
Amount of radioactivity in organ: Lung [6, 11]: 2.03 ± 0.14 % ID/g
Amount of radioactivity in organ: Pancreas [6, 8]: 3.30 ± 0.86 % ID/g
Amount of radioactivity in organ: Pancreas [6, 9]: 2.15 ± 0.23 % ID/g
Amount of radioactivity in organ: Pancreas [6, 10]: 1.15 ± 0.18 % ID/g
Amount of radioactivity in organ: Pancreas [6, 11]: 0.86 ± 0.08 % ID/g
Amount of radioactivity in organ: Spleen [6, 8]: 9.23 ± 0.63 % ID/g
Amount of radioactivity in organ: Spleen [6, 9]: 10.9 ± 2.78 % ID/g
Amount of radioactivity in organ: Spleen [6, 10]: 8.51 ± 2.68 % ID/g
Amount of radioactivity in organ: Spleen [6, 11]: 8.46 ± 2.57 % ID/g
Amount of radioactivity in organ: Stomach [6, 8]: 1.33 ± 0.25 % ID/g
Amount of radioactivity in organ: Stomach [6, 9]: 2.67 ± 1.59 % ID/g
Amount of radioactivity in organ: Stomach [6, 10]: 4.55 ± 1.28 % ID/g
Amount of radioactivity in organ: Stomach [6, 11]: 7.45 ± 5.07 % ID/g
Radioactivity of eluted fraction: aggregated tau vs non aggregated tau vs buffer (tau protein aggregate [7]): specifically binding to a tau protein aggregate
